PubChem BioAssay (NCI)
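Tested at 5 concentrations; 48 h exposure; 96-well plates; endpoints linearly interpolated, else capped at highest concentration. GI50: concentration for 50% inhibition of growth. At the TGI there is no net growth.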

Columns and labels:
Experiment in all cases: NCI tumour cell line growth inhibition, 48 h
[1] = system: 786-0 renal
[2] = system: A498 renal
[3] = system: A549 NSCLC
[4] = system: ACHN renal
[5] = system: BT-549 breast
[6] = system: CAKI-1 renal
[7] = system: CCRF-CEM leukemia
[8] = system: COLO 205 colon
[9] = system: DU-145 prostate
[10] = system: EKVX NSCLC
[11] = system: HCC-2998 colon
[12] = system: HCT-116 colon
[13] = system: HCT-15 colon
[14] = system: HL-60(TB) leukemia
[15] = system: HOP-62 NSCLC
[16] = system: HOP-92 NSCLC
[17] = system: HS 578T breast
[18] = system: HT29 colon
[19] = system: IGROV1 ovarian
[20] = system: K-562 leukemia
[21] = system: KM12 colon
[22] = system: LOX IMVI melanoma
[23] = system: M14 melanoma
[24] = system: MALME-3M melanoma
[25] = system: MCF7 breast
[26] = system: MDA-MB-231 breast
[27] = system: MDA-MB-435
[28] = system: MOLT-4 leukemia
[29] = system: NCI-H226 lung
[30] = system: NCI-H23 lung
[31] = system: NCI-H460 lung
[32] = system: NCI-H522 lung
[33] = system: NCI/ADR-RES ovarian
[34] = system: OVCAR-3 ovarian
[35] = system: OVCAR-4 ovarian
[36] = system: OVCAR-5 ovarian
[37] = system: OVCAR-8 ovarian
[38] = system: PC-3 prostate
[39] = system: RPMI-8226 leukemia
[40] = system: RXF 393 renal
[41] = system: SF-268 CNS
[42] = system: SF-295 CNS
[43] = system: SF-539 CNS
[44] = system: SK-MEL-2 melanoma
[45] = system: SK-MEL-28 melanoma
[46] = system: SK-MEL-5 melanoma
[47] = system: SK-OV-3 ovarian
[48] = system: SN12C renal
[49] = system: SNB-19 CNS
[50] = system: SNB-75 CNS
[51] = system: SR leukemia
[52] = system: SW-620 colon
[53] = system: T-47D breast
[54] = system: TK-10 renal
[55] = system: U251 CNS
[56] = system: UACC-257 melanoma
[57] = system: UACC-62 melanoma
[58] = system: UO-31 renal

## CCN1C(C)(C)CC(Oc2ccc(C(=O)Nc3ccc(NC(=O)Nc4cc(C(C)(C)C)on4)cc3)nc2)CC1(C)C
[1]
  GI50: 1.66 µM
  TGI: 3.52 µM
[2]
  GI50: 1.95 µM
  TGI: 11.6 µM
[3]
  GI50: 2.71 µM
  TGI: 7.4 µM
[4]
  GI50: 2.05 µM
  TGI: 4.37 µM
[5]
  GI50: 4.53 µM
  TGI: 10.3 µM
[6]
  GI50: 1.98 µM
  TGI: 5.35 µM
[7]
  GI50: 2.85 µM
  TGI: 7.77 µM
[8]
  GI50: 1.83 µM
  TGI: 3.82 µM
[9]
  GI50: 1.87 µM
  TGI: 3.72 µM
[10]
  GI50: 3.6 µM
  TGI: 20.9 µM
[11]
  GI50: 1.9 µM
  TGI: 4.17 µM
[12]
  GI50: 1.99 µM
  TGI: 3.68 µM
[13]
  GI50: 1.71 µM
  TGI: 3.72 µM
[14]
  GI50: 2.02 µM
  TGI: 4.38 µM
[15]
  GI50: 1.67 µM
  TGI: 3.87 µM
[16]
  GI50: 2.38 µM
  TGI: 8.09 µM
[17]
  GI50: 1.44 µM
  TGI: 6.06 µM
[18]
  GI50: 1.58 µM
  TGI: 3.86 µM
[19]
  GI50: 6.86 µM
  TGI: 47.5 µM
[20]
  GI50: 1.69 µM
  TGI: 3.76 µM
[21]
  GI50: 2.91 µM
  TGI: 9.35 µM
[22]
  GI50: 1.78 µM
  TGI: 3.31 µM
[23]
  GI50: 1.91 µM
  TGI: 3.63 µM
[24]
  GI50: 1.61 µM
  TGI: 3.37 µM
[25]
  GI50: 2.14 µM
  TGI: 5.55 µM
[26]
  GI50: 2.02 µM
  TGI: 4.82 µM
[27]
  GI50: 1.82 µM
  TGI: 3.47 µM
[28]
  GI50: 1.93 µM
  TGI: 5.24 µM
[29]
  GI50: 11.2 µM
  TGI: 30.7 µM
[30]
  GI50: 3.64 µM
  TGI: 20.1 µM
[31]
  GI50: 1.89 µM
  TGI: 3.69 µM
[32]
  GI50: 1.82 µM
  TGI: 4.23 µM
[33]
  GI50: 2.48 µM
  TGI: > 22.6 µM
[34]
  GI50: 1.78 µM
  TGI: 3.86 µM
[35]
  GI50: 5.23 µM
  TGI: 25.9 µM
[36]
  GI50: 2.94 µM
  TGI: 11.4 µM
[37]
  GI50: 2.29 µM
  TGI: 5.66 µM
[38]
  GI50: 2.88 µM
  TGI: 8.82 µM
[39]
  GI50: 1.96 µM
  TGI: 4.72 µM
[40]
  GI50: 1.64 µM
  TGI: 3.36 µM
[41]
  GI50: 2.39 µM
  TGI: 7.71 µM
[42]
  GI50: 1.67 µM
  TGI: 3.27 µM
[43]
  GI50: 1.15 µM
  TGI: 2.62 µM
[44]
  GI50: 2.09 µM
  TGI: 4.89 µM
[45]
  GI50: 1.8 µM
  TGI: 3.63 µM
[46]
  GI50: 1.68 µM
  TGI: 3.22 µM
[47]
  GI50: 6.03 µM
  TGI: 15.9 µM
[48]
  GI50: 1.66 µM
  TGI: 3.4 µM
[49]
  GI50: 2.64 µM
  TGI: 11.2 µM
[50]
  GI50: 1.35 µM
  TGI: 3.44 µM
[51]
  GI50: 2.28 µM
  TGI: 4.91 µM
[52]
  GI50: 2.1 µM
  TGI: 4.37 µM
[53]
  GI50: 2.34 µM
  TGI: 7.2 µM
[54]
  GI50: 5.49 µM
  TGI: 14 µM
[55]
  GI50: 1.68 µM
  TGI: 3.58 µM
[56]
  GI50: 2.2 µM
  TGI: 4.02 µM
[57]
  GI50: 1.76 µM
  TGI: 3.51 µM
[58]
  GI50: 1.67 µM
  TGI: 4.25 µM
